From PMC10098953, “Genome Mining Enabled by Biosynthetic Characterization Uncovers a Class of Benzoxazolinate‐Containing Natural Products in Diverse Bacteria” (Angewandte Chemie (International Ed. in English), 2022) come the findings set out here.

The structures appear in SMILES notation.

The test system of the assay is T1, PbzB.
T1 construct: recombinant, His-SUMO-tag, expressed in and purified from E. coli BL21(DE3); homodimer (apo crystal structure)
Nature of the assay: steady-state kinetics of 2-hydroxymethylserine formation (LC-MS). The class given is biochemical, Pseudomonas chlororaphis subsp. piscium. As to conditions: cofactors PLP and 5,10-methylenetetrahydrofolate (mTHF); potassium phosphate buffer pH 7.5 (stated for the glycine assay; same condition for serine).

What is called Km is the concentration of substrate that gives half-maximal velocity. Turning to `N[C@H](CO)C(=O)O` [D-serine], the Km came out at 603 ± 56.7 µM.
In the case of `N[C@@H](CO)C(=O)O` [L-serine], the Km was 69.52 ± 0.03 µM.
